According to PubChem BioAssay (NCI):
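Five concentrations, 48 hours, 96-well plates. At the TGI there is no net growth.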

Experiments:
Test in all cases: NCI anticancer screen, dose series, 48 h
A549 NSCLC = tested on: A549 NSCLC
NCI-H460 lung = tested on: NCI-H460 lung
HOP-92 NSCLC = tested on: HOP-92 NSCLC
UO-31 renal = tested on: UO-31 renal
MALME-3M melanoma = tested on: MALME-3M melanoma
SF-295 CNS = tested on: SF-295 CNS
SK-MEL-5 melanoma = tested on: SK-MEL-5 melanoma
CCRF-CEM leukemia = tested on: CCRF-CEM leukemia
NCI-H226 lung = tested on: NCI-H226 lung
PC-3 prostate = tested on: PC-3 prostate

| Structure (SMILES) | TGI (A549 NSCLC) | TGI (NCI-H460 lung) | TGI (HOP-92 NSCLC) | TGI (UO-31 renal) | TGI (MALME-3M melanoma) | TGI (SF-295 CNS) | TGI (SK-MEL-5 melanoma) | TGI (CCRF-CEM leukemia) | TGI (NCI-H226 lung) | TGI (PC-3 prostate) |
| --- | --- | --- | --- | --- | --- | --- | --- | --- | --- | --- |
| Cc1c(C)n(-c2ccccc2)c2nc(S(C)=O)nc(S(C)=O)c12 (stereo unspecified) | 31.7 µM | 43.4 µM | 4.62 µM | 20.2 µM | 4.09 µM | 32.2 µM | 6.1 µM | 3.88 µM | 36.2 µM | 19.7 µM |
| COC(=O)[C@]1(C)CCC[C@@]2(C)C1CC[C@]13C=C(C(C)C)[C@H](CC21)CC3(Cl)C#N (stereo partly specified) | > 100 µM | > 100 µM | > 100 µM | > 100 µM | 89.7 µM | > 100 µM | > 100 µM | 60.6 µM | 75.4 µM | > 100 µM |
| O=c1c2c3c(sc2[nH]c(=S)n1-c1ccccc1)CCCc1ccc([N+](=O)[O-])cc1-3 | > 100 µM | > 100 µM | 76.6 µM | > 100 µM | > 100 µM | > 100 µM | > 100 µM | – | > 100 µM | > 100 µM |
| COC(=O)/C=C(/C=C1/C(C#N)=C(N)N(c2ccc(Cl)cc2)C1(C)/C(=C\C(=O)OC)C(=O)OC)C(=O)OC (stereo unspecified) | > 100 µM | 46.3 µM | 48 µM | 41.2 µM | 58.8 µM | > 100 µM | 29.4 µM | > 100 µM | 86.4 µM | 35 µM |
| COC(=O)c1ccccc1C1CN=NC12Cc1c(ccc(C)c1C)C2=O (stereo unspecified) | > 100 µM | > 100 µM | 84.2 µM | > 100 µM | > 100 µM | > 100 µM | > 100 µM | > 100 µM | > 100 µM | > 100 µM |
| CN(C)c1ccc(/C=C(\NC(=O)c2ccccc2)C(=O)NC(CC(=O)O)C(=O)O)cc1 (stereo unspecified) | > 100 µM | > 100 µM | > 100 µM | > 100 µM | – | > 100 µM | > 100 µM | > 100 µM | > 100 µM | > 100 µM |
| COc1ccc2nc(NC(=O)/C(C#N)=C/c3ccccc3)sc2c1 | > 100 µM | > 100 µM | > 100 µM | > 100 µM | > 100 µM | > 100 µM | > 73.6 µM | 59.7 µM | > 100 µM | > 100 µM |
| CN1CSC(=S)N(c2cccc(C(F)(F)F)c2)C1 | 73 µM | 42.6 µM | 50.5 µM | 45.3 µM | 35.2 µM | 51.2 µM | 31.4 µM | > 100 µM | 61.8 µM | 69.1 µM |
| Cc1ccc2cccc(-c3cccc4ccccc34)c2n1 | > 100 µM | 89 µM | 62.1 µM | 51.4 µM | > 100 µM | 69.8 µM | 32.2 µM | 50 µM | 74.5 µM | > 100 µM |
| O=c1oc2ccccc2c(O)c1Cc1ccc(Cc2c(O)c3ccccc3oc2=O)cc1 | > 100 µM | > 100 µM | > 100 µM | > 100 µM | > 100 µM | > 100 µM | > 100 µM | > 100 µM | > 100 µM | > 100 µM |
| C[n+]1cc2cc(O)c(O)cc2c2ccc3cc(O)c(O)cc3c21 | > 100 µM | > 60.2 µM | 11.5 µM | 5.61 µM | 12.9 µM | 38.8 µM | > 54.8 µM | 6.17 µM | > 48.2 µM | 34.4 µM |
| CC(=O)O[C@@H](c1nccn1Cc1ccccc1)[C@H]1OC(C)(C)O[C@@H]1[C@H]1COC(C)(C)O1 | > 100 µM | > 100 µM | > 100 µM | > 100 µM | > 100 µM | > 100 µM | > 100 µM | > 100 µM | > 100 µM | > 100 µM |
| CCOC1C=CC(=O)C(CO)O1 (stereo unspecified) | 34.9 µM | 30.9 µM | 8.29 µM | 4.77 µM | 25.8 µM | 33.2 µM | 37.1 µM | 6.07 µM | 46.3 µM | 28.9 µM |
| CC(C)Oc1cccc(N2C(n3ccnc3)=Nc3ccncc3S2(=O)=O)c1 | 37.2 µM | 37.4 µM | 25.7 µM | 38.3 µM | 26.6 µM | > 100 µM | 26.3 µM | – | 42.5 µM | 22.7 µM |
| NS(=O)(=O)c1nnc(NC(=O)N(c2ccccc2)c2ccccc2)s1 | > 100 µM | – | 53 µM | > 100 µM | 62.5 µM | > 100 µM | 67 µM | > 100 µM | > 100 µM | > 100 µM |
| O=c1oc2ccc3ccccc3c2cc1-c1cn2ccsc2n1 | > 100 µM | > 100 µM | 30 µM | 31.7 µM | 41.1 µM | > 100 µM | 56.5 µM | 51.6 µM | – | 96.4 µM |
| O=C1C=CC2(O[C@H](c3ccccc3)[C@@H](c3ccccc3)O2)[C@H](Sc2ccccc2O)C1 | 16.4 µM | 8.95 µM | 1.32 µM | 1.22 µM | 0.907 µM | 15.6 µM | 2.22 µM | – | 5.43 µM | 2.06 µM |
| CCOC(=O)c1csc(NC(=O)C(C)N2CCCC2)n1 (stereo unspecified) | > 100 µM | > 100 µM | > 100 µM | > 100 µM | – | > 100 µM | > 100 µM | > 100 µM | – | > 100 µM |
| Cn1nc(-c2ccc(S(=O)(=O)/N=C(\NN)Nc3ccc(Cl)cc3)s2)cc1C(F)(F)F | 29.3 µM | 37.9 µM | 40.2 µM | 28 µM | – | 31.3 µM | 35.9 µM | – | 32.6 µM | 31.2 µM |
| CN(O)C(=O)/C=C/c1ccc(OCc2cccc(Cl)c2)cc1 | 63.5 µM | 43.3 µM | > 100 µM | 23.5 µM | – | > 100 µM | 78.2 µM | 65.6 µM | 73.9 µM | > 100 µM |
| COc1cccc(C2c3cc4c(cc3OC(O)C2C)OCO4)c1OC (stereo unspecified) | 26 µM | 25.1 µM | 8.55 µM | – | 32.9 µM | 17.3 µM | 21.8 µM | 9.6 µM | 24.8 µM | 32.1 µM |
| N#Cc1c(-c2ccc([N+](=O)[O-])cc2)cc(-c2ccc(Nc3ccnc4cc(Cl)ccc34)cc2)[nH]c1=O | > 100 µM | > 100 µM | > 100 µM | > 100 µM | > 100 µM | > 100 µM | – | – | > 100 µM | > 100 µM |
